# From ChEMBL document CHEMBL3525932, “Comparison of metabolism of sesamin and episesamin by drug-metabolizing enzymes in human liver” (Drug Metab Dispos, 2012)
# Tests used:
# Liver microsome = test: Drug level in human liver microsomes treated with sesamin after 30 mins by HPLC analysis in presence of NADPH; format: ADME; conditions: 0.5 h
# Cytochrome P450 2C19 [1] = target: T1, Cytochrome P450 2C19 (Homo sapiens, UniProt P33261); test: Activity of recombinant human CYP2C19 expressed in Saccharomyces cerevisiae AH22 cells assessed as enzyme-mediated sesamin dicatechol formation after 15 mins by HPLC analysis in presence of NADPH; format: ADME, cell-based; conditions: ah22, 0.25 h
# Cytochrome P450 2C9 = Cytochrome P450 2C9 (Homo sapiens, UniProt P11712); test: Activity of recombinant human CYP2C9 expressed in Saccharomyces cerevisiae AH22 cells assessed as enzyme-mediated sesamin dicatechol formation after 15 mins by HPLC analysis in presence of NADPH; format: ADME, cell-based; conditions: ah22, 0.25 h
# Cytochrome P450 2C19 [2] = target: T1, Cytochrome P450 2C19; test: Activity of recombinant human CYP2C19 expressed in Saccharomyces cerevisiae AH22 cells assessed as enzyme-mediated compound formation treated with sesamin at 2 to 20 uM after 15 mins by HPLC analysis in presence of NADPH; format: ADME, cell-based; conditions: ah22, 0.25 h
# CYP450 [3] = test: Drug metabolism in human liver microsomes assessed as CYP450-mediated catecholization after 10 to 30 mins by HPLC analysis in presence of NADPH; format: ADME
# UGT [4] = test: Drug metabolism in human liver microsomes assessed as UGT-mediated glucuronidation after 10 to 30 mins by HPLC analysis in presence of UDP-GlcUA; format: ADME
# [5] = Drug metabolism in human liver microsomes assessed as UGT-mediated glucuronidation per mg of protein after 10 to 30 mins by HPLC analysis in presence of UDP-GlcUA; format: ADME
# [6] = Drug metabolism in human liver microsomes assessed as CYP450-mediated catecholization per mg of protein after 10 to 30 mins by HPLC analysis in presence of NADPH; format: ADME
# CYP450 [7] = test: Drug metabolism in Sprague-Dawley rat liver microsomes assessed as CYP450-mediated catecholization after 10 to 30 mins by HPLC analysis in presence of NADPH; format: ADME
# [8] = Drug metabolism in Sprague-Dawley rat liver microsomes assessed as CYP450-mediated catecholization per mg of protein after 10 to 30 mins by HPLC analysis in presence of NADPH; format: ADME
# [9] = Drug metabolism in Sprague-Dawley rat liver microsomes assessed as UGT-mediated glucuronidation per mg of protein after 10 to 30 mins by HPLC analysis in presence of UDP-GlcUA; format: ADME
# UGT [10] = test: Drug metabolism in Sprague-Dawley rat liver microsomes assessed as UGT-mediated glucuronidation after 10 to 30 mins by HPLC analysis in presence of UDP-GlcUA; format: ADME
# T1 sequence (P33261 whole entry): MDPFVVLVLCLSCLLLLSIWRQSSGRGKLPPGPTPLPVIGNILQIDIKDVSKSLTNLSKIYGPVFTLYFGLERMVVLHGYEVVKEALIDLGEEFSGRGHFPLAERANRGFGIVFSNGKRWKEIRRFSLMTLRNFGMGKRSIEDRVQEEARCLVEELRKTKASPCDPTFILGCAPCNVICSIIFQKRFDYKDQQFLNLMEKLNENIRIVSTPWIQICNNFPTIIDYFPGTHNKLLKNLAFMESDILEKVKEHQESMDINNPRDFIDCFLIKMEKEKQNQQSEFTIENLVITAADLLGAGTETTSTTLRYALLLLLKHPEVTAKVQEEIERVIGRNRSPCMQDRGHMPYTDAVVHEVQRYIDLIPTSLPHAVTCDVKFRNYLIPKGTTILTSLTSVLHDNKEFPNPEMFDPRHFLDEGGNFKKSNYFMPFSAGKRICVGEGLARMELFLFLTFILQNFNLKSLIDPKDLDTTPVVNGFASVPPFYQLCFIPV
# Sequence of Cytochrome P450 2C9 (P11712 whole entry): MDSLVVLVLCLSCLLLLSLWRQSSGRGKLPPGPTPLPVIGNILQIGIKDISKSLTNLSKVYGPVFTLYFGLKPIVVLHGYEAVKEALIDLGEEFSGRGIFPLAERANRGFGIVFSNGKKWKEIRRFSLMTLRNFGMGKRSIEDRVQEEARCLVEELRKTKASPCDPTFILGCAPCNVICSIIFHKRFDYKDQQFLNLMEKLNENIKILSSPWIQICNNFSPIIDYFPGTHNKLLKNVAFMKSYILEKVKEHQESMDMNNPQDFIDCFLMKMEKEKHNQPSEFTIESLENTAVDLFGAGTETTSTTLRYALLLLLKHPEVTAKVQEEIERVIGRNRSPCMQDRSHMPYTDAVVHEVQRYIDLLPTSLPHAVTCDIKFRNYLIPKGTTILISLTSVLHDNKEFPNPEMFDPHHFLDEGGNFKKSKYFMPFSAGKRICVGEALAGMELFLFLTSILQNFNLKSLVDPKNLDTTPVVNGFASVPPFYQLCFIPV
smiles,measurement,setting,value
Oc1ccc([C@H]2OC[C@H]3[C@@H]2CO[C@@H]3c2ccc3c(c2)OCO3)cc1O,Drug metabolism,Liver microsome,metabolite_detected
same,Drug metabolism,Cytochrome P450 2C19 [1],10.4 nmol/min
same,Drug metabolism,Cytochrome P450 2C9,0.83 nmol/min
same,Drug metabolism,Cytochrome P450 2C19 [2],metabolite_detected
same,Km,CYP450 [3],18.8 µM
same,Km,UGT [4],18 µM
same,Vmax,[5],6 nmol/min/mg
same,Vmax,[6],0.44 nmol/min/mg
same,Km,CYP450 [7],5.3 µM
same,Vmax,[8],3.7 nmol/min/mg
same,Vmax,[9],1.1 nmol/min/mg
same,Km,UGT [10],20.3 µM
